Read-outs that look alike come from different tables or passages of the source. No end group written: not given here.

As a reminder, the EC50 is the concentration that produces a half-maximal response.

This assay addresses T1, human TAS1R2-WT/TAS1R3-WT (Homo sapiens, UniProt Q7RTX0+Q8TE23).
T1 construct: expressed in transfected cells; host or cells: HEK293T-Gα16gust44
T1 sequence (Q8TE23 20-839): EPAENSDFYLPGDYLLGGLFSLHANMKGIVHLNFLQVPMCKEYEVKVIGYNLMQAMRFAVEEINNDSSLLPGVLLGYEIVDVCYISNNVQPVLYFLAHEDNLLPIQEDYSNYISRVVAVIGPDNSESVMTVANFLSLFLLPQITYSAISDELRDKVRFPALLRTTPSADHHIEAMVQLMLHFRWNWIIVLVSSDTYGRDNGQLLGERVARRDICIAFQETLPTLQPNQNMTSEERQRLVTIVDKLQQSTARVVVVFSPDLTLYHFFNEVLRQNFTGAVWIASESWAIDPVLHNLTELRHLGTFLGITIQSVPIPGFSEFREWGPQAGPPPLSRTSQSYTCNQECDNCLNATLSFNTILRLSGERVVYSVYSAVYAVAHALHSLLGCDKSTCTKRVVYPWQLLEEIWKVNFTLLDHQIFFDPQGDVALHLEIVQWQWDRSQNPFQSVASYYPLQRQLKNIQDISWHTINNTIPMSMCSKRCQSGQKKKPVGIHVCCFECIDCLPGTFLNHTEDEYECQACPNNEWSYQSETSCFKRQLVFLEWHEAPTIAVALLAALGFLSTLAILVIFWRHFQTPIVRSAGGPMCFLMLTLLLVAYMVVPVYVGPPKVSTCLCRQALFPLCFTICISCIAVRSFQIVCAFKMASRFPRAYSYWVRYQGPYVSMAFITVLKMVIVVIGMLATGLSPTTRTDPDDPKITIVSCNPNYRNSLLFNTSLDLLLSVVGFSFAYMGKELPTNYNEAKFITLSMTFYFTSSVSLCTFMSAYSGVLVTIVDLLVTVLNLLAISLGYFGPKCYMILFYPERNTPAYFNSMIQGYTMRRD
T1 sequence (Q7RTX0 21-852): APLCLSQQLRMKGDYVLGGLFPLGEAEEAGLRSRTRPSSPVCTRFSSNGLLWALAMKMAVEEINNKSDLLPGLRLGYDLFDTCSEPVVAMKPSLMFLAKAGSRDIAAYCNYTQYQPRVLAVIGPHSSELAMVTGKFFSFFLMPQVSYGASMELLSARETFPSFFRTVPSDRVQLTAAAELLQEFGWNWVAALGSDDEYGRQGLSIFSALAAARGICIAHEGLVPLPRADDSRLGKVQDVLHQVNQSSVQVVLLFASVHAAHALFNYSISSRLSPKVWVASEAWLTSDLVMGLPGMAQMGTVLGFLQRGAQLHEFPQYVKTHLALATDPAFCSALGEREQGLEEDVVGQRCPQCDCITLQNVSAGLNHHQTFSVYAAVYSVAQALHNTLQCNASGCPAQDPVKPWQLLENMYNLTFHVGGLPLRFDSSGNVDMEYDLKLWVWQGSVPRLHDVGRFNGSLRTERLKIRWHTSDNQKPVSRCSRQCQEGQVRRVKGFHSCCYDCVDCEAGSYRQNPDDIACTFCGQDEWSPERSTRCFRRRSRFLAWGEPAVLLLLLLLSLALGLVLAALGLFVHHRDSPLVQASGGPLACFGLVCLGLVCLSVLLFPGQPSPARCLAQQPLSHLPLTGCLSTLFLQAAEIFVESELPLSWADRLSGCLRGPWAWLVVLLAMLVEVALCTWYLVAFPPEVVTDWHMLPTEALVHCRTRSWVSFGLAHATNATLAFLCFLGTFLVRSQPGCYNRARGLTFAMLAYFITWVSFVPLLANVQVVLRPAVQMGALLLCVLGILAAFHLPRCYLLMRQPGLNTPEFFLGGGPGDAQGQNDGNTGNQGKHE
Nature of the assay: Calcium mobilisation assay, HEK293T-Gα16gust44 cells, human sweet taste receptor WT. Particulars: for Max ΔF/F0: maximal signal amplitude. The class given is cell-based. From the text: The coding sequences for TAS1R2 and TAS1R3 were commercially synthesised, and the human codon was optimised for expression in human cells. The coding sequences of human TAS1R2 and TAS1R3 were subcloned and inserted into the mammalian expression vectors pcDNA6/myc-HisA and pcDNA4/myc-HisA (Invitrogen; Thermo Fisher Scientific; Illkirch, France) between the EcoRI and NotI restriction sites, generating the plasmids pcDNA6-TAS1R2 and pcDNA4-TAS1R3, respectively. To increase protein expression in mammalian cells, an upstream start codon was used, which was a sequence called MAX, corresponding to the QBI SP163 element also described in pcDNA4-HisMax (Invitrogen; Thermo Fisher Scientific; Illkirch, France). To measure the expression level of the receptor by immunohistochemistry, we used the FLAG sequence ([…]) in the C-terminal position, which encodes the FLAG tag epitope. SNP variants of TAS1R2 and TAS1R3 were constructed based on […], respectively, using site-directed mutagenesis (Genewiz; Leipzig, Germany).
The HEK293T cells were kindly provided by Jay P. Slack (Givaudan Flavors Corporation; Cincinnati, OH, USA). HEK293T cells stably transfected with Gα16gust44 [43, 67] were seeded in poly-D-lysine-coated clear-bottom black 96-well plates (0.35 × 10^5 cells/well) in high-glucose DMEM supplemented with 2 mM GlutaMAX, 10% dialysed foetal bovine serum with penicillin/streptomycin and G418 (400 μg/mL) at 37 °C and 6.3% CO2 in a humidified atmosphere as previously reported. […] As a negative control, HEK293T cells were mock-transfected with the empty expression vector. After a further 24 h of incubation, the HEK293T cells were washed with C1 buffer (130 mM NaCl, 5 mM KCl, 10 mM HEPES pH 7.4 and 2 mM CaCl2). The 96-well plates containing the cells were then stimulated with sweet-tasting compounds. […] Different concentration ranges were tested depending on the sweet compound injected. The Ca^2+ changes were expressed as fractional changes in fluorescent light intensity: ΔF/F = (F − F0)/F0, where F was the fluorescent light intensity at each point, and F0 was the value of emitted fluorescent light prior to stimulus application. To calculate dose–response relationships, the changes in fluorescence upon stimulus application were averaged, mock-subtracted and baseline-corrected. The dose–response data obtained were adjusted using a 4-parameter logistic equation. The half-maximal effective concentrations (EC50 values) and maximal signal amplitudes were calculated using SigmaPlot software (version 15.0) (Systat Software; San Jose, CA, USA).
For in vitro calcium mobilisation assay performed on hTAS1R2-SNPs, hTAS1R3-SNPs and mTAS1R3-I60T, 6 to 7 concentrations were tested for each sweet compound, plus buffer alone. All concentration–receptor combinations were measured in duplicate, and each experiment was repeated at least 4 times (8 wells/concentration). Results were expressed for each concentration as ΔF/F mean ± SEM and represented as dose–response curves.

Setting [1] is: TAS1R2-WT + TAS1R3-WT, read-out: EC50.
The mark [2] stands for this setting: TAS1R2-WT/TAS1R3-WT, read-out: EC50.

As for `C=C(C)[C@@H]1CC=C(/C=N/O)CC1` [Perillartine, perillartine], the “R1 = Variant EC50/WT EC50” value reads like this: (TAS1R2-WT + TAS1R3-WT) 1.0; (TAS1R2-WT/TAS1R3-WT) 1.0. The “Max ΔF/F0” value reads like this: (TAS1R2-WT + TAS1R3-WT) 1.47 ± 0.07; (TAS1R2-WT/TAS1R3-WT) 1.51 ± 0.22. Further, the EC50 stood at 17.5 ± 2.2 µM under setting [1] and 13.8 ± 6.3 µM under setting [2].

In the case of `O=S(=O)(O)NC1CCCCC1` [Cyclamate, cyclamate], the EC50 reads like this: under setting [1], 1890 ± 46 µM; under setting [2], 1590 ± 28 µM.

In the case of `C=C1C[C@@]23CC[C@H]4[C@@](C)(CCC[C@@]4(C)C(=O)O[C@@H]4O[C@H](CO)[C@@H](O)[C@H](O[C@@H]5O[C@H](CO)[C@@H](O)[C@H](O)[C@H]5O)[C@H]4O[C@@H]4O[C@H](CO)[C@@H](O)[C@H](O)[C@H]4O)[C@@H]2CC[C@]1(O[C@@H]1O[C@H](CO)[C@@H](O)[C@H](O[C@@H]2O[C@H](CO)[C@@H](O)[C@H](O)[C@H]2O)[C@H]1O[C@@H]1O[C@H](CO)[C@@H](O)[C@H](O)[C@H]1O)C3` [Rebaudioside M, rebaudioside M], the “R1 = Variant EC50/WT EC50” value was 1.0 (TAS1R2-WT + TAS1R3-WT) and 1.0 (TAS1R2-WT/TAS1R3-WT). Further, the “Max ΔF/F0” value is, setting by setting: (TAS1R2-WT + TAS1R3-WT) 1.12 ± 0.01; (TAS1R2-WT/TAS1R3-WT) 0.69 ± 0.02. In addition, the EC50 by setting is: under setting [1], 16.9 ± 0.5 µM; under setting [2], 40.4 ± 2.9 µM.

On to `OC[C@H]1O[C@H](O[C@]2(CCl)O[C@H](CCl)[C@@H](O)[C@@H]2O)[C@H](O)[C@@H](O)[C@H]1Cl` [Sucralose], for which the “R1 = Variant EC50/WT EC50” value is, setting by setting: (TAS1R2-WT + TAS1R3-WT) 1.0; (TAS1R2-WT/TAS1R3-WT) 1.0. Also, the “Max ΔF/F0” value by setting is: (TAS1R2-WT + TAS1R3-WT) 0.59 ± 0.03; (TAS1R2-WT/TAS1R3-WT) 0.65 ± 0.01. For the same molecule, the EC50 is, setting by setting: under setting [1], 90 ± 11 µM; under setting [2], 109 ± 4 µM.

For `CC1=CC(=O)NS(=O)(=O)O1` [Acesulfame K, acesulfame K], the “R1 = Variant EC50/WT EC50” value is, setting by setting: (TAS1R2-WT + TAS1R3-WT) 1.0; (TAS1R2-WT/TAS1R3-WT) 1.0. Also, the “Max ΔF/F0” value is reported as 0.31 ± 0.01 (TAS1R2-WT + TAS1R3-WT) and 0.28 ± 0.01 (TAS1R2-WT/TAS1R3-WT). Also, the concentration giving a half-maximal response (EC50) turned out to be 705 ± 7 µM under setting [1] and 622 ± 45 µM under setting [2].

Turning to “brazzein (QDKCKKVYENYPVSKCQLANQCNYDCKLDKHARSGECFYDEKRNLQCICDYCEY; ends and bridges not checked; cysteine pairing not given here; UniProt P56552 1-54, looked up) [sweet-tasting protein obtained by recombinant production using the yeast Pichia pastoris]”, under “TAS1R2-WT + TAS1R3-WT”, the “R1 = Variant EC50/WT EC50” value is on record as 1.0 and the “Max ΔF/F0” value is reported as 1.17 ± 0.04. Under “TAS1R2-WT/TAS1R3-WT”, the “R1 = Variant EC50/WT EC50” value stood at 1.0 and the “Max ΔF/F0” value is 0.88 ± 0.03. Moreover, the EC50 (TAS1R2-WT/TAS1R3-WT, brazzein) was determined as 112.8 ± 11.2 µg/mL.

Turning to thaumatin, the “R1 = Variant EC50/WT EC50” value by setting is: (TAS1R2-WT + TAS1R3-WT) 1.0; (TAS1R2-WT/TAS1R3-WT) 1.0. For the same molecule, the “Max ΔF/F0” value reads like this: (TAS1R2-WT + TAS1R3-WT) 0.72 ± 0.01; (TAS1R2-WT/TAS1R3-WT) 0.57 ± 0.02.

Consider `COC(=O)[C@H](Cc1ccccc1)NC(=O)[C@H](CC(=O)O)NCCC(C)(C)C` [Neotame], for which the “R1 = Variant EC50/WT EC50” value turned out to be 1.0 (TAS1R2-WT + TAS1R3-WT) and 1.0 (TAS1R2-WT/TAS1R3-WT). In addition, the “Max ΔF/F0” value came to 0.56 ± 0.03 (TAS1R2-WT + TAS1R3-WT) and 0.65 ± 0.02 (TAS1R2-WT/TAS1R3-WT). Also, the 50% effective concentration (EC50) runs as follows: under setting [1], 0.84 ± 0.13 µM; under setting [2], 1.22 ± 0.11 µM.

On to `C[C@H](CC[C@@H](O[C@@H]1O[C@H](CO[C@@H]2O[C@H](CO)[C@@H](O)[C@H](O)[C@H]2O)[C@@H](O)[C@H](O)[C@H]1O[C@@H]1O[C@H](CO)[C@@H](O)[C@H](O)[C@H]1O)C(C)(C)O)[C@H]1CC[C@@]2(C)[C@@H]3CC=C4[C@@H](CC[C@H](O[C@@H]5O[C@H](CO[C@@H]6O[C@H](CO)[C@@H](O)[C@H](O)[C@H]6O)[C@@H](O)[C@H](O)[C@H]5O)C4(C)C)[C@]3(C)[C@H](O)C[C@]12C` [Mogroside V, mogroside V], for which the “R1 = Variant EC50/WT EC50” value is, setting by setting: (TAS1R2-WT + TAS1R3-WT) 1.0; (TAS1R2-WT/TAS1R3-WT) 1.0. Moreover, the “Max ΔF/F0” value reads like this: (TAS1R2-WT + TAS1R3-WT) 1.28 ± 0.03; (TAS1R2-WT/TAS1R3-WT) 0.93 ± 0.01. For the same molecule, the EC50 was 17.3 ± 1.2 µM under setting [1] and 31.3 ± 0.8 µM under setting [2].

Regarding `COc1ccc(CCC(=O)c2c(O)cc(O[C@@H]3O[C@H](CO)[C@@H](O)[C@H](O)[C@H]3O[C@@H]3O[C@@H](C)[C@H](O)[C@@H](O)[C@H]3O)cc2O)cc1O` [NHDC, neohesperidin dihydrochalcone], the “R1 = Variant EC50/WT EC50” value by setting is: (TAS1R2-WT + TAS1R3-WT) 1.0; (TAS1R2-WT/TAS1R3-WT) 1.0. The “Max ΔF/F0” value came out at 0.71 ± 0.02 (TAS1R2-WT + TAS1R3-WT) and 1.13 ± 0.01 (TAS1R2-WT/TAS1R3-WT). Besides, the EC50 runs as follows: under setting [1], 76.7 ± 4.4 µM; under setting [2], 50.3 ± 11 µM.

B1: thaumatin (protein)
chain: ATFEIVNRCSYTVWAAASKGDAALDAGGRQLNSGESWTINVEPGTKGGKIWARTDCYFDDSGSGICKTGDCGGLLRCKRFGRPPTTLAEFSLNQYGKDYIDISNIKGFNVPMDFSPTTRGCRGVRCAADIVGQCPAKLKAPGGGCNDACTVFQTSEYCCTTGKCGPTEYSRFFKRLCPDAFSYVLDKPTTVTCPGSSNYRVTFCPTA
modifications: Eight disulfides
notes: sweet-tasting plant protein, E957
As for B1, the EC50 is, setting by setting: under setting [1], 7.6 ± 0.3 µM; under setting [2], 10.4 ± 0.6 µM.

The values are drawn from article PMC11945486, “TAS1R2/TAS1R3 Single-Nucleotide Polymorphisms Affect Sweet Taste Receptor Activation by Sweeteners: The SWEET Project” (Nutrients, 2025).
